Results: patent publication US20240417387A1, “SULFONYLPIPERAZINYL COMPOUNDS FOR TREATMENT OF BACTERIAL INFECTIONS” (Hoffmann-La Roche Inc., priority 2021, published 2024)
≈ marks a conversion by molar mass, not a printed value.

How the values were obtained:
[1] = tested on: Escherichia coli BW 25113; assay: Minimal Inhibitory Concentration (MIC) broth dilution assay, E. coli BW 25113; assay type: cell-based; details: CAMHB; for MIC: Escherichia coli, BW25113, 20 hours at 35° C., read-out: MIC E. coli K-12 BW 25113
Description: (§1) The antibacterial activity of molecules was evaluated against the commonly used quality control strain Escherichia coli BW 25113, Escherichia coli ATCC 25922 and the rifampin-resistant mutant strain Klebsiella pneumonia ATCC 43816. Escherichia co/i BW 25113 was obtained from the Coli Genetic Stock Center (CGSC) (strain 7636). Both Escherichia coli ATCC 25922 and Klebsiella pneumonia ATCC 43816 were originally derived from human clinical samples and are available from ATCC (American Type Culture Collection). The in vitro potency of compounds to inhibit Escherichia coli (BW 25113, ATCC 25922) and Klebsiella pneumonia (ATCC 43816) growth was assessed by the MIC (Minimal Inhibitory Concentration) broth dilution method. Specifically compound dilutions were prepared from 10 mM DMSO stock solutions as follows: i) serial 2-fold dilution in 20 μL DMSO were prepared in a master plate (Greiner, Cat No: 651201), ii) 180 μL sterile distilled water was added to each aliquot and iii) 10 μL diluted compounds were transferred into a new assay plate (Costar, 3599).
(§2) Vials of each test microorganisms were maintained frozen in the vapor phase of a liquid nitrogen freezer. Single-use frozen vials of the three strains Escherichia coli BW 25113, Escherichia coli ATCC 25922 (KWTKSTTK, 0335K) and Klebsiella pneumonia ATCC 43816, with predetermined CFU/mL, were taken out from the freezer, thawed at room temperature, and diluted in Cation-Adjusted Mueller Hinton Broth (CAMVIHB) to achieve a final inoculum of 5×10^5 CFU/mL. 90 μL bacteria containing broth was dispensed to the assay plate containing the pre-dispensed compound dilutions and mixed by pipetting 5 times.
(§3) Then the assay plates were incubated for 20 hours at 35° C. in ambient air. Following incubation, the MIC […], the lowest concentration of drug that inhibits visible growth of the microorganism was read with the help of a magnification mirror and recorded.

[2] = tested on: Escherichia coli ATCC 25922; assay: Minimal Inhibitory Concentration (MIC) broth dilution assay, E. coli ATCC 25922; assay type: cell-based; details: for MIC: Escherichia coli, ATCC25922, 20 h, read-out: MIC E. coli ATCC 25922
Description: as §1, §2, §3

[3] = tested on: Klebsiella pneumonia ATCC 43816; assay: Minimal Inhibitory Concentration (MIC) broth dilution assay, K. pneumonia ATCC 43816; assay type: cell-based; details: CAMHB; for MIC: Klebsiella pneumoniae, ATCC43816, 20 hours at 35° C., read-out: MIC K. p ATCC 43816
Description: as §1, §2, §3

[4] = Human microsome stability assay; assay type: in vitro ADME
Description: The human microsomal stability assay is used for early assessment of metabolic stability of a test compound in human liver microsomes.
Human liver microsomes (Cat.NO.: 452117, Corning, USA) were preincubated with test compound for 10 minutes at 37° C. in 100 mM potassium phosphate buffer, pH 7.4. The reactions were initiated by adding NADPH regenerating system. The final incubation mixtures contained 1 µM test compound, 0.5 mg/mL liver microsomal protein, 1 mM MgCl2, 1 mM NADP, 1 unit/mL isocitric dehydrogenase and 6 mM isocitric acid in 100 mM potassium phosphate buffer, pH 7.4. After incubation times of 0, 3, 6, 9, 15 and 30 minutes at 37° C., 300 μL of cold acetonitrile (including internal standard) was added to 100 μL incubation mixture to terminate the reaction. Following precipitation and centrifugation, the amount of compound remaining in the samples were determined by LC-MS/MS. Controls of no NADPH regenerating system at zero and 30 minutes were also prepared and analyzed. […] (Human microsome clearance: <7 mL/min/kg: low; 7-16.2 mL/min/kg: medium; >16.2 mL/min/kg: high)

[5] = human liver microsomes 0.5 mg/mL, 37° C., pH 7.4, NADPH regenerating system

Molecule	MIC [1] [µg/mL]	MIC [2] [µg/mL]	MIC [3] [µg/mL]	Clearance of Human microsome [4, 5] [mL/min/kg]	MIC E. coli K-12 BW 25113 ([1]; 20 hours at 35° C.) [µg/mL]	MIC E. coli K-12 ATCC 25922 ([2]; broth dilution, 20 hours at 35° C., CAMHB) [µg/mL]	MIC K. p ATCC 43816 ([3]; 20 hours at 35° C.) [µg/mL]	Clearance of Human microsome ([4]; human, microsomes, pH 7.4) [mL/min/kg]
NCCNC(=O)[C@H]1CC[C@H](C(F)(F)c2cc(Cl)nc(N3CCN(S(=O)(=O)c4ccc(N5C[C@H](N)CC5=O)cc4)CC3)c2)CC1 [Example 041, Trans-N-(2-aminoethyl)-4-[[2-chloro-6-[4-[4-[(4R)-4-amino-2-oxo-pyrrolidin-1-yl]phenyl]sulfonylpiperazin-1-yl]-4-pyridyl]-difluoro-methyl]cyclohexanecarboxamide]	0.54 (≈ 0.825 µM)	0.54 (≈ 0.825 µM)	0.54 (≈ 0.825 µM)	9.73	–	–	–	–
C[N+](C)(CCCN)CCCNC(=O)[C@H]1CC[C@H](C(F)(F)c2cc(Cl)nc(N3CCN(S(=O)(=O)c4ccc(N5C[C@H](N)CC5=O)cc4)CC3)c2)CC1 [Example 084, Trans-3-[[4-[[2-[4-[4-[(4R)-4-amino-2-oxo-pyrrolidin-1-yl]phenyl]sulfonylpiperazin-1-yl]-6-chloro-4-pyridyl]-difluoro-methyl]cyclohexanecarbonyl]amino]propyl-(3-aminopropyl)-dimethyl-ammonium]	0.48	0.48	0.81	9.7	–	–	–	–
NCC(O)CNC(=O)c1ccc(C(F)(F)c2cc(Cl)nc(N3CCN(S(=O)(=O)c4ccc(N5C[C@H](N)CC5=O)cc4)CC3)c2)cc1 (stereo partly drawn) [Example 019, N-(3-amino-2-hydroxy-propyl)-4-[[2-chloro-6-[4-[4-[(4R)-4-amino-2-oxo-pyrrolidin-1-yl]phenyl]sulfonylpiperazin-1-yl]-4-pyridyl]-difluoro-methyl]benzamide]	0.35 (≈ 0.516 µM)	0.71 (≈ 1.05 µM)	0.35 (≈ 0.516 µM)	10.63	–	–	–	–
NC1CC(=O)N(c2ccc(S(=O)(=O)N3CCN(c4cc(C(F)(F)c5ccc(C(=O)NCCCO)cc5)cc(Cl)n4)CC3)cc2)C1 (centres unmarked) [Example 015, 4-[[2-[4-[4-(4-amino-2-oxo-pyrrolidin-1-yl)phenyl]sulfonylpiperazin-1-yl]-6-chloro-4-pyridyl]-difluoro-methyl]-N-(3-hydroxypropyl)benzamide]	0.7 (≈ 1.06 µM)	0.7 (≈ 1.06 µM)	0.7 (≈ 1.06 µM)	9.58	–	–	–	–
NCCCNC(=O)c1ccc(C(F)(F)c2cc(Cl)nc(N3CCN(S(=O)(=O)c4ccc(N5CC(N)CC5=O)cc4)CC3)c2)cc1 (centres unmarked) [Example 016, 4-[[2-[4-[4-(4-amino-2-oxo-pyrrolidin-1-yl)phenyl]sulfonylpiperazin-1-yl]-6-chloro-4-pyridyl]-difluoro-methyl]-N-(3-aminopropyl)benzamide]	0.35 (≈ 0.529 µM)	0.35 (≈ 0.529 µM)	0.35 (≈ 0.529 µM)	8.63	–	–	–	–
NC[C@@H]1CN(C(=O)[C@H]2CC[C@H](C(F)(F)c3cc(Cl)nc(N4CCN(S(=O)(=O)c5ccc(N6C[C@H](N)CC6=O)cc5)CC4)c3)CC2)C[C@@H]1CN [Example 067, Trans-(4R)-4-amino-1-[4-[4-[4-[[4-[cis-3,4-bis(aminomethyl)pyrrolidine-1-carbonyl]cyclohexyl]-difluoro-methyl]-6-chloro-2-pyridyl]piperazin-1-yl]sulfonylphenyl]pyrrolidin-2-one]	0.59 (≈ 0.816 µM)	0.3 (≈ 0.415 µM)	0.57 (≈ 0.788 µM)	6.15	–	–	–	–
C[C@H]1CNC[C@@H]1NC(=O)[C@H]1CC[C@H](C(F)(F)c2cc(Cl)nc(N3CCN(S(=O)(=O)c4ccc(N5C[C@H](N)CC5=O)cc4)CC3)c2)CC1 [Example 068, Trans-4-[[2-[4-[4-[(4R)-4-amino-2-oxo-pyrrolidin-1-yl]phenyl]sulfonylpiperazin-1-y1]-6-chloro-4-pyridy1]-difluoro-methyl]-N-[(3R,4S)-4-methylpyrrolidin-3-yl]cyclohexanecarboxamide]	0.32 (≈ 0.461 µM)	0.32 (≈ 0.461 µM)	0.32 (≈ 0.461 µM)	9.49	–	–	–	–
C[C@H]1C[C@H](N)CN1C(=O)[C@H]1CC[C@H](C(F)(F)c2cc(Cl)nc(N3CCN(S(=O)(=O)c4ccc(N5C[C@H](N)CC5=O)cc4)CC3)c2)CC1 [Example 064, (4R)-4-amino-1-[4-[4-[4-[[4-[(2S,4S)-4-amino-2-methyl-pyrrolidine-1-carbonyl]cyclohexyl]-difluoro-methyl]-6-chloro-2-pyridyl]piperazin-1-yl]sulfonylphenyl]pyrrolidin-2-one]	0.67 (≈ 0.965 µM)	0.57 (≈ 0.821 µM)	0.57 (≈ 0.821 µM)	6.15	–	–	–	–
NCC(O)CNC(=O)c1ccc(C(F)(F)c2cc(Cl)nc(N3CCN(S(=O)(=O)c4ccc(N5CC(N)CC5=O)cc4)CC3)c2)cc1 (centres unmarked) [Example 018, N-(3-amino-2-hydroxy-propyl)-4-[[2-[4-[4-(4-amino-2-oxo-pyrrolidin-1-yl)phenyl]sulfonylpiperazin-1-yl]-6-chloro-4-pyridyl]-difluoro-methyl]benzamide]	0.62 (≈ 0.914 µM)	0.62 (≈ 0.914 µM)	0.62 (≈ 0.914 µM)	6.15	–	–	–	–
NCCCNC(=O)C1C[C@@H]2CC[C@H]1CC2C(F)(F)c1cc(Cl)nc(N2CCN(S(=O)(=O)c3ccc(N4C[C@H](N)CC4=O)cc3)CC2)c1 (some centres unmarked) [Example 053]	0.55 (≈ 0.792 µM)	0.57 (≈ 0.821 µM)	0.54 (≈ 0.778 µM)	6.15	–	–	–	–
Trans-N-[(1R,3S)-3-aminocyclopentyl]-4-[2-[4-[4-[(4R)-4-amino-2-oxo-pyrrolidin-1-yl]phenyl]sulfonylpiperazin-1-yl]-6-chloro-4-pyridyl]-difluoro-methyl]cyclohexanecarboxamide [Example 066]	–	–	–	–	1.3	0.63	0.59	6.15
N[C@@H]1CC(=O)N(c2ccc(S(=O)(=O)N3CCN(c4cc(C(F)(F)[C@H]5CC[C@H](C(=O)N[C@H]6CCC(N7C[C@H](N)C[C@H](N)C7)C6)CC5)cc(Cl)n4)CC3)cc2)C1 (stereo partly drawn) [Example 081, Trans-4-[[2-chloro-6-[4-[4-[(4R)-4-amino-2-oxo-pyrrolidin-1-yl]phenyl]sulfonylpiperazin-1-yl]-4-pyridyl]-difluoro-methyl]-N-[(1S)-3-[cis-3,5-diamino-1-piperidyl]cyclopentyl]cyclohexanecarboxamide]	0.65 (≈ 0.82 µM)	0.65 (≈ 0.82 µM)	0.65 (≈ 0.82 µM)	6.71	–	–	–	–
NCCCN(CCCN)C(=O)C12CCC(C(F)(F)c3cc(Cl)nc(N4CCN(S(=O)(=O)c5ccc(N6C[C@H](N)CC6=O)cc5)CC4)c3)(CC1)C2 [Example 046]	2.4 (≈ 3.26 µM)	1.2 (≈ 1.63 µM)	1.2 (≈ 1.63 µM)	6.15	–	–	–	–
CN[C@@H]1CC(=O)N(c2ccc(S(=O)(=O)N3CCN(c4cc(C(F)(F)[C@H]5CC[C@H](C(=O)NCCCN)CC5)cc(Cl)n4)CC3)cc2)C1 [Example 069, Trans-N-(3-aminopropyl)-4-[[2-chloro-6-[4-[4-[(4R)-4-(methylamino)-2-oxo-pyrrolidin-1-yl]phenyl]sulfonylpiperazin-1-y1]-4-pyridyl]-difluoro-methyl]cyclohexanecarboxamide]	0.56 (≈ 0.821 µM)	0.56 (≈ 0.821 µM)	0.56 (≈ 0.821 µM)	10.85	–	–	–	–
NC[C@@H]1CN([C@@H]2CC[C@H](NC(=O)[C@H]3CC[C@H](C(F)(F)c4cc(Cl)nc(N5CCN(S(=O)(=O)c6ccc(N7C[C@H](N)CC7=O)cc6)CC5)c4)CC3)C2)C[C@@H]1CN [Example 080, Trans-4-[[2-[4-[4-[(4R)-4-amino-2-oxo-pyrrolidin-1-yl]phenyl]sulfonylpiperazin-1-yl]-6-chloro-4-pyridyl]-difluoro-methyl]-N-[(1S,3R)-3-[cis-3,4-bis(aminomethyl)pyrrolidin-1-yl]cyclopentyl]cyclohexanecarboxamide]	0.33 (≈ 0.409 µM)	0.33 (≈ 0.409 µM)	0.99 (≈ 1.23 µM)	–	–	–	–	–
